Test results taken from paper PMC9870012 (Journal of Enzyme Inhibition and Medicinal Chemistry, 2023).

Key:
ADAM10 = molecular target: T1, ADAM10 (Homo sapiens, UniProt O14672); assay: Off-target metalloprotease inhibition, ADAM10; type: biochemical; conditions: for remaining activity at 10 µM: read-out: Residual activity ADAM10
T1 sequence (O14672 214-748): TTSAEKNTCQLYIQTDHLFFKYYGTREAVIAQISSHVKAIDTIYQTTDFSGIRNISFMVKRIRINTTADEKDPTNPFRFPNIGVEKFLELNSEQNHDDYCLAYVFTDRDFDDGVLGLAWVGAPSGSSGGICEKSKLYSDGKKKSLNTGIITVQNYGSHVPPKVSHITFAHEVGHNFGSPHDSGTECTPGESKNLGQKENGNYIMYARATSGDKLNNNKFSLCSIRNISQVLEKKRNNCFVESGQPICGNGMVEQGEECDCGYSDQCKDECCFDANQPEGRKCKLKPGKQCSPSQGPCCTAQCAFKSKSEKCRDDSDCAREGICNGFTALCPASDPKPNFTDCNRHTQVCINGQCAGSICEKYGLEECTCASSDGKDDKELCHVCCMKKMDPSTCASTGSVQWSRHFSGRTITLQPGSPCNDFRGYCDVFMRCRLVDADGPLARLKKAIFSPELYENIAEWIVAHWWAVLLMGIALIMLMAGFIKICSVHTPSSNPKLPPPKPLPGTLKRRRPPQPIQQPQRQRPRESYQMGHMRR

MMP2 = molecular target: T2, MMP2 (Homo sapiens, UniProt P08253); assay: Off-target metalloprotease inhibition, MMP2; type: biochemical; conditions: for remaining activity at 10 µM: read-out: Residual activity MMP2
T2 sequence (P08253 110-660): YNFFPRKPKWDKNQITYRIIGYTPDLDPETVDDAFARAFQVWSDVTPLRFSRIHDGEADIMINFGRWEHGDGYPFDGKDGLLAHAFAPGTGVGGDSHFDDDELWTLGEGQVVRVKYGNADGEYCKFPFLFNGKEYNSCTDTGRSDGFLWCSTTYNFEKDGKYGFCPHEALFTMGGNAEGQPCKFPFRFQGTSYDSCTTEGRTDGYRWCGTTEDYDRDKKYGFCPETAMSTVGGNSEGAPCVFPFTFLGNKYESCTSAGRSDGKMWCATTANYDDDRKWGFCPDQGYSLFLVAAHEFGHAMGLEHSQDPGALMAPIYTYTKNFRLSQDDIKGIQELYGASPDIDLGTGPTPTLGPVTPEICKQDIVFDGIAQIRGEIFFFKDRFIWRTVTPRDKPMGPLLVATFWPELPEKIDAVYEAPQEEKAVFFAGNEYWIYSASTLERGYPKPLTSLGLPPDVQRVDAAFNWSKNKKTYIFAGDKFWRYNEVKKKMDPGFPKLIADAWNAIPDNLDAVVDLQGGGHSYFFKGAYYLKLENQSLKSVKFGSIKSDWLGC

MMP13 = MMP13 (Homo sapiens, UniProt P45452); assay: Off-target metalloprotease inhibition, MMP13; type: biochemical; conditions: read-out: Residual activity MMP13
human meprin α = molecular target: T3, human meprin α (Homo sapiens, UniProt Q16819); type: biochemical; conditions: for Ki: Ki(app) Meprin α, geometric mean of three independent experiments with standard deviation factor; for SF: selectivity factor (Ki(app) meprin β/Ki(app) meprin α): meprin α over meprin β
T3 sequence (Q16819 66-746): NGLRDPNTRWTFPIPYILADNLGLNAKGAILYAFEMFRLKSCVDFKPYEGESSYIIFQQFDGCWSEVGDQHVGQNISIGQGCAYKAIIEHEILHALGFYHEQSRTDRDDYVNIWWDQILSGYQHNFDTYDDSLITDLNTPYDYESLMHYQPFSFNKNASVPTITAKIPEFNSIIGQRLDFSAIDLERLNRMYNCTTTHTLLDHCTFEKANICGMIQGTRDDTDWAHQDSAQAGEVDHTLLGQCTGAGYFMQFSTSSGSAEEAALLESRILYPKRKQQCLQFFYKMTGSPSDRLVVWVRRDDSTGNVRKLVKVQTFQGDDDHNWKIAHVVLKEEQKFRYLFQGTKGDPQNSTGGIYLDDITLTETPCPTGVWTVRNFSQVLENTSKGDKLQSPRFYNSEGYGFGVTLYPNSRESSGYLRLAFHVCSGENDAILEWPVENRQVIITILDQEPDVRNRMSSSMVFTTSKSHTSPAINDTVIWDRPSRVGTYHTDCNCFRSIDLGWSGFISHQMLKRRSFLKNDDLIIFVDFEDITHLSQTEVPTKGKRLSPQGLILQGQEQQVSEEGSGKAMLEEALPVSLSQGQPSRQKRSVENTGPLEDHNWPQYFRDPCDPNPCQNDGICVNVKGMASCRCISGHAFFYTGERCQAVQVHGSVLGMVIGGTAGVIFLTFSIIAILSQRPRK

Cell viability assay [1] = type: cell-based; conditions: human, Hep-G2 cells
Cell viability assay [2] = type: cell-based; conditions: human, SH-SY5Y cells
MMP9 = MMP9 (Homo sapiens, UniProt P14780); assay: Off-target metalloprotease inhibition, MMP9; type: biochemical; conditions: read-out: Residual activity MMP9
MMP9, sequence (P14780 107-707 limits assumed): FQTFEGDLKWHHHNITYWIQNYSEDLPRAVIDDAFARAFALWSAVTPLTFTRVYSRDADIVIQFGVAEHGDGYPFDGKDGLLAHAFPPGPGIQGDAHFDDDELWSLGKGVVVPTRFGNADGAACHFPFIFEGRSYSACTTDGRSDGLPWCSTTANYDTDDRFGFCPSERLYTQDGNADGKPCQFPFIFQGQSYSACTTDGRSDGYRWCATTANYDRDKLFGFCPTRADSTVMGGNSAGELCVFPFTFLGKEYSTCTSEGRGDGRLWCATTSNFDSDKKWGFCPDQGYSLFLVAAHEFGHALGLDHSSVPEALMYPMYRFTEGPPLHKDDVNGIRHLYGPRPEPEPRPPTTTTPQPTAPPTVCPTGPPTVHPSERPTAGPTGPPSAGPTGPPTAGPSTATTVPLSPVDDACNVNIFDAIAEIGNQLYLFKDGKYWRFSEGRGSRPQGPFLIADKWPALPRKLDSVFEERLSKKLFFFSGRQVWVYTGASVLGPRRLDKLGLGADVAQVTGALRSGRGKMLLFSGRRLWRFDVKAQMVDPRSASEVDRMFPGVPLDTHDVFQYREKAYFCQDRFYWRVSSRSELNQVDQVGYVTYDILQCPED

ADAM17 = ADAM17 (Homo sapiens, UniProt P78536); assay: Off-target metalloprotease inhibition, ADAM17; type: biochemical; conditions: for remaining activity at 10 µM: read-out: Residual activity ADAM17
ADAM17, sequence (P78536 215-824): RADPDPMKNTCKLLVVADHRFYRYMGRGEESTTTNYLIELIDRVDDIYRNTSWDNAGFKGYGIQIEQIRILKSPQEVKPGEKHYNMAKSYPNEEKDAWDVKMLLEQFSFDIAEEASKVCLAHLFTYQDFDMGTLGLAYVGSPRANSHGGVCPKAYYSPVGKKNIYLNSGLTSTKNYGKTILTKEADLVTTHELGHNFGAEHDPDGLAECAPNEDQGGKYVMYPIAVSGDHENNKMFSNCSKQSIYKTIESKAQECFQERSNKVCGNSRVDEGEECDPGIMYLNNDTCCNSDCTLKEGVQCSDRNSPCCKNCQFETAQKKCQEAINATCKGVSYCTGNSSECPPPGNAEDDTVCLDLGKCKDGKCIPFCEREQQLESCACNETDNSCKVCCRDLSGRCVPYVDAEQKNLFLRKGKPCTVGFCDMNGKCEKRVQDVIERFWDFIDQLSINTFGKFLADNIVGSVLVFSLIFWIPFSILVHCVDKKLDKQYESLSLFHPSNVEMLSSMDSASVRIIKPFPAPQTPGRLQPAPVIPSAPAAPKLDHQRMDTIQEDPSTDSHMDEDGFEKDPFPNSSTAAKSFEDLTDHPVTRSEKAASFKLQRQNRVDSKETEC

human meprin β = molecular target: T4, human meprin β (Homo sapiens, UniProt Q16820); type: biochemical; conditions: for Ki: Ki(app) Meprin β, geometric mean of three independent experiments with standard deviation factor
T4 sequence (Q16820 62-701): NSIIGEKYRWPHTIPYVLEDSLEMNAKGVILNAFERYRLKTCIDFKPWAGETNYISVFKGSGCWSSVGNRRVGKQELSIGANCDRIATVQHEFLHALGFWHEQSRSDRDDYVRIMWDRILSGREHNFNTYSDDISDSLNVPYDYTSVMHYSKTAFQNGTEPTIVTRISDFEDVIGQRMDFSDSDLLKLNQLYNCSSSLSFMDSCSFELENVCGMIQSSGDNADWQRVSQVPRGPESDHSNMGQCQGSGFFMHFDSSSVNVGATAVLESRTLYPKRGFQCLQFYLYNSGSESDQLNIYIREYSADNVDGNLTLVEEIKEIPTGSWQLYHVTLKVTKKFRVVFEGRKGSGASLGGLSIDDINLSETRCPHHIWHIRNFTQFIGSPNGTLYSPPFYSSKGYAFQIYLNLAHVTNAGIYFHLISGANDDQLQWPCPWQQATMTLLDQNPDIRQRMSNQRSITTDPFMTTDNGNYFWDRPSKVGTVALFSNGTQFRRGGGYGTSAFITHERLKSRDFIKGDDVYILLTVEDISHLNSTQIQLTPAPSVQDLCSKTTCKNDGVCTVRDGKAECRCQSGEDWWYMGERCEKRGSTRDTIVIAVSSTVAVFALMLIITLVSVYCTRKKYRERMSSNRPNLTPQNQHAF

remaining activity at 10 µM (ADAM10) [%]	remaining activity at 10 µM (MMP2) [%]	remaining activity at 10 µM (MMP13) [%]	Ki (human meprin α) [nM]	SF: selectivity factor (Ki(app) meprin β/Ki(app) meprin α) (human meprin α)	remaining activity at 10 µM (MMP9) [%]	IC50 (ADAM17) [nM]	remaining activity at 10 µM (ADAM17) [%]	IC50 (ADAM10) [nM]	IC50 (MMP2) [nM]	Ki (human meprin β) [nM]	fold increase in potency against meprin β (human meprin β; compared to 21e) [fold]	improvement in activity against meprin β by factor (human meprin β; compared to 7a)	SMILES	viability at 24 h, 30 µM (Cell viability assay [1]) [%]	viability at 24 h, 30 µM (Cell viability assay [2]) [%]
69	77	78	0.6	508	74	2300	21	–	–	–	–	–	O=C(Cc1c(-c2ccccc2)nn(Cc2ccc3c(c2)OCO3)c1-c1ccccc1)NO [21f, 2-[1-(1,3-Benzodioxol-5-ylmethyl)-3,5-diphenyl-pyrazol-4-yl]ethanehydroxamic acid]	103	88
91	85	86	0.4	24	80	–	67	–	–	9.4	30	–	O=C(Cc1c(-c2ccccc2)nn(Cc2ccc(C(=O)O)cc2)c1-c1ccccc1)NO [21h, 4-[[4-[2-(Hydroxyamino)-2-oxo-ethyl]-3,5-diphenyl-pyrazol-1-yl]methyl]benzoic acid]	103	88
85	69	84	–	116	70	–	72	–	–	9.3	–	–	O=C(Cc1c(-c2ccccc2)nn(Cc2ccc(Cl)c(O)c2F)c1-c1ccccc1)NO [21i, 2-[1-[(4-Chloro-2-fluoro-3-hydroxy-phenyl)methyl]-3,5-diphenyl-pyrazol-4-yl]ethane-hydroxamic acid]	107	79
–	–	–	–	1	–	–	–	–	–	14.5	–	–	O=C(Cc1c(-c2cccc(C(=O)O)c2)n[nH]c1-c1cccc(C(=O)O)c1)NO [16b, 3-[3-(3-Carboxyphenyl)-4-[2-(hydroxyamino)-2-oxo-ethyl]-1H-pyrazol-5-yl]benzoic acid]	–	–
–	–	–	4	167	–	–	–	–	–	667	–	–	O=C(Cc1c(-c2ccccc2)nn(-c2ccccc2)c1-c1ccccc1)NO [21b, 2-(1,3,5-Triphenylpyrazol-4-yl)ethanehydroxamic acid]	–	–
–	–	–	0.4	13	–	–	–	–	–	5.2	–	–	O=C(Cc1c([C@@H]2CCCC[C@@H]2C(=O)O)n[nH]c1-c1cccc(C(=O)O)c1)NO (relative stereo) [16k, 3-[4-[2-(Hydroxyamino)-2-oxo-ethyl]-3-[cis-2-carboxycyclohexyl]-1H-pyrazol-5-yl]benzoic acid]	–	–
62	–	–	0.6	–	63	9600	57	12000	–	–	–	–	O=C(Cc1c(-c2ccc3c(c2)OCO3)n[nH]c1-c1ccc2c(c1)OCO2)NO [16a, 2-[3,5-Bis(1,3-benzodioxol-5-yl)-1H-pyrazol-4-yl]ethanehydroxamic acid]	–	–

The next lines start with the compound.

SMILES	remaining activity at 10 µM (ADAM10) [%]	remaining activity at 10 µM (MMP2) [%]	remaining activity at 10 µM (MMP13) [%]	Ki (human meprin α) [nM]	SF: selectivity factor (Ki(app) meprin β/Ki(app) meprin α) (human meprin α)	remaining activity at 10 µM (MMP9) [%]	IC50 (ADAM17) [nM]	remaining activity at 10 µM (ADAM17) [%]	IC50 (ADAM10) [nM]	IC50 (MMP2) [nM]	Ki (human meprin β) [nM]	fold increase in potency against meprin β (human meprin β; compared to 21e) [fold]	improvement in activity against meprin β by factor (human meprin β; compared to 7a)	viability at 24 h, 30 µM (Cell viability assay [1]) [%]	viability at 24 h, 30 µM (Cell viability assay [2]) [%]
O=C(Cc1c(-c2ccc3c(c2)OCO3)n[nH]c1-c1ccccc1)NO [14f, 2-[3-(1,3-Benzodioxol-5-yl)-5-phenyl-1H-pyrazol-4-yl]ethanehydroxamic acid]	59	41	71	1.1	99	72	7400	51	13900	5300	–	–	–	96	90
O=C(Cc1c(-c2cc(F)c(O)c(Cl)c2)n[nH]c1-c1ccccc1)NO [14m, 2-[3-(3-Chloro-5-fluoro-4-hydroxyphenyl)-5-phenyl-1H-pyrazol-4-yl]ethanehydroxamic acid]	104	66	88	0.1	3	86	–	68	–	–	0.4	–	–	103	86
COc1ccc(-c2n[nH]c(-c3ccccc3)c2CC(=O)NO)cc1OC [14g, 2-[3-(3,4-Dimethoxyphenyl)-5-phenyl-1H-pyrazol-4-yl]ethanehydroxamic acid]	87	83	101	0.7	117	90	–	65	–	–	–	–	–	99	85
O=C(Cc1c(-c2cccc(-c3nnn[nH]3)c2)n[nH]c1-c1ccccc1)NO [14p, 2-[5-Phenyl-3-[3-(1H-tetrazol-5-yl)phenyl]-1H-pyrazol-4-yl]ethanehydroxamic acid]	–	–	–	0.7	10	–	–	–	–	–	6.7	–	16	–	–
COc1cccc(-c2n[nH]c(-c3ccccc3)c2CC(=O)NO)c1 [14d, 2-[3-(3-Methoxyphenyl)-5-phenyl-1H-pyrazol-4-yl]ethanehydroxamic acid]	68	78	85	1.1	105	80	11600	52	–	–	–	–	–	104	84
